Results from article PMC11714206, “Massively Parallel Screening of Toll/Interleukin‐1 Receptor (TIR)‐Derived Peptides Reveals Multiple Toll‐Like Receptors (TLRs)‐Targeting Immunomodulatory Peptides” (Advanced Science, 2024).
Each block holds one substance with its values, some of them ahead of it.

Molecular target: T1, MAL^TIR (Homo sapiens, UniProt P58753)
T1 construct: MAL (residues 79–221); 6xHis; made in house; host or cells: E. coli BL21 (DE3)
Test: T‐Surf phage library (P8 and P3) selection against MAL^TIR, four rounds, NGS read counts
Type: binding
Conditions: for P8_MAL Rank (after) / P8_MAL Rank (before): P8 library; for P3_MAL Rank (after) / P3_MAL Rank (before): P3 library; for Population: 4th round of selection against MAL TIR, share of NGS reads
Procedure: T‐Surf libraries were screened against the immobilized TIR domains of two major human TLR adaptor proteins, MAL^TIR and MyD88^TIR, allowing cross‐species selection of TIR‐binding motifs with 190 946 TIR‐derived peptides in a single binding assay (Scheme 1). Enriched phage pools from the fourth round of selection were analyzed using NGS after barcoding the peptide‐coding regions of the phage pools.
Phage display screening was performed by coating two wells of a 96‐well plate (Maxisorp, Thermo Fisher Scientific) with 100 µL of 5 µg mL^−1 TIR domains overnight; then, the coated wells were blocked with 200 µL of blocking buffer (0.2% BSA in PBS) and set aside for 1 h at 4 °C with gentle shaking. Next, 100 µL of the phage library was added to the wells and incubated for 1 h at room temperature (RT; 20 – 22 °C) with gentle shaking. The plate was washed four times with PBS containing 0.5% Tween‐20; the bound phages were eluted by adding 100 µL of 100 mM HCl to each well. The elute was neutralized with 10 µL of 1.0 M Tris‐HCl (pH 11.0). E. coli TG1 cells were grown to the log phase (A600 = ≈0.6), and 1 mL of the culture was incubated with 100 µL of the eluted phages for 30 min at 37 °C, with shaking at 200 rpm. Next, 1 µL of M13KO7 helper phages was added, followed by incubation for 45 min at 37 °C, with shaking. Subsequently, the cells were transferred to 25 mL of 2× yeast extract tryptone/carbenicillin/kanamycin medium and incubated overnight at 37 °C with shaking at 200 rpm. The amplified phages were precipitated with 20% PEG‐8000/2.5 M NaCl to be used for the next round of selection.
The naïve T‐Surf libraries in P8 and P3 and the enriched phage pools after four rounds were barcoded for NGS as previously described.^[ [59] ^] Briefly, 5 µL of the phage pool was used as a template for 20 cycles of a 50 µL PCR reaction using […] each of forward and reverse barcoded primers and PrimeSTAR Max DNA Polymerase. The PCR products were purified using Expin Gel SV (GeneAll). The NGS samples were quantified using qPCR, following the qPCR Quantification Protocol Guide (KAPA Library Quantification kits for Illumina Sequencing Platform), and qualified using the TapeStation High Sensitivity D1000 ScreenTape (Agilent Technologies). The indexed libraries were further sequenced by Macrogen (Seoul, Republic of Korea) using the NovaSeq platform (Illumina) with 100 bp paired‐end reads. The reads were demultiplexed by barcodes and filtered for an average Phred quality score of at least 30, followed by trimming the flanking consensus sequences using Cutadapt (version 2.3). Peptide sequence populations were analyzed according to the read counts.

[1] = selection against MAL, rank by count after grouping
[2] = selection against MAL, rank by count before grouping
[3] = P3_MAL: rank by count after grouping
[4] = P3_MAL: rank by count before grouping
[5] = P3_MAL pool: P3 T-Surf phage library
[6] = 4R selection against MAL, rank after grouping
[7] = 4R selection against MAL, rank before grouping
[8] = selection against MAL TIR, rank by count after grouping
[9] = selection against MAL TIR, rank by count before grouping
[10] = selection against MAL, rank after grouping
[11] = selection against MAL, rank before grouping
[12] = P8_MAL: rank by count after grouping
[13] = P8_MAL: rank by count before grouping

T1 sequence (P58753 79-221): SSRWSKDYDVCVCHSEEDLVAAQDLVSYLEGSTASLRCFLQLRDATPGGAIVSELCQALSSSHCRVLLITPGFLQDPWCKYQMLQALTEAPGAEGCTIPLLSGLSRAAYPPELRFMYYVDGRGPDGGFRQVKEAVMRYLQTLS

P8_MAL Rank (after) [1]: 716
P8_MAL Rank (before) [2]: 1572
Substance: GLSWGPYEWWMGLYDA

P3_MAL Rank (after) [1]: 683
P3_MAL Rank (before) [2]: 1767
Substance: GPDTRRKFISFLYKEL

Rank (after) [3]: 403
Rank (before) [4]: 1763
Substance: GRYGELFMTETDVREG

Population [5]: 0.00639%
Substance: GSFREGLWRLLELSKK

P3_MAL Rank (after) [6]: 589
P3_MAL Rank (before) [7]: 1776
Substance: GSIKWRDQHTVHPQSS

Population [5]: 0.03%
Rank (after) [3]: 100
Rank (before) [4]: 100
Substance: GWFLNKLSQLILKKEK

P3_MAL Rank (after) [8]: 279
P3_MAL Rank (before) [9]: 1756
Substance: GWFREGLWRLLELSKK

Population (P8_MAL pool: P8 T-Surf phage library): 0.00309%
Substance: HFFGFN*KAFWAKPAX

P8_MAL Rank (after) [8]: 277
P8_MAL Rank (before) [9]: 2392
Substance: HFFLDSTEKHSGRNQL

P8_MAL Rank (after) [10]: 542
P8_MAL Rank (before) [11]: 2394
Substance: HFFWFKLKSILGETSF

Rank (after) [12]: 184
Rank (before) [13]: 992
Substance: HFFWIQLKAFWAKPA

P8_MAL Rank (after) [6]: 610
P8_MAL Rank (before) [7]: 2417
Substance: HFFWIQLKNILGENSF

P8_MAL Rank (after) [6]: 592
P8_MAL Rank (before) [7]: 2396
Substance: HFFWVKLKSILGETSL

Rank (after) [12]: 444
Rank (before) [13]: 2425
Substance: HFSRIQLKSRLGETSF

P8_MAL Rank (after) [6]: 632
P8_MAL Rank (before) [7]: 2423
Substance: HFWWIPLKSILGETSF

P8_MAL Rank (after) [6]: 618
P8_MAL Rank (before) [7]: 2426
Substance: HFYWILLKSILGETRL

Rank (after) [3]: 401
Rank (before) [4]: 2818
Substance: HHKAAMAKRWRNMKN

P3_MAL Rank (after) [6]: 580
P3_MAL Rank (before) [7]: 2826
Substance: HHKGSYGEALAEDEER

P3_MAL Rank (after) [10]: 541
P3_MAL Rank (before) [11]: 2842
Substance: HHKGSYGEALHQFHSWV

P3_MAL Rank (after) [10]: 486
P3_MAL Rank (before) [11]: 2815
Substance: HHNGSYCEALAEHKER

Rank (after) [3]: 167
Rank (before) [4]: 2817
Substance: HHNSSYGEALAEHEKR

P3_MAL Rank (after) [6]: 584
P3_MAL Rank (before) [7]: 2814
Substance: HHTGSYGQALAEHEKR

P8_MAL Rank (after) [10]: 506
P8_MAL Rank (before) [11]: 2428
Substance: HLFCIQLKSILGETSF

Rank (after) [3]: 461
Rank (before) [4]: 2772
Substance: HLLDKLRSNGISPFID

P3_MAL Rank (after) [6]: 646
P3_MAL Rank (before) [7]: 2779
Substance: HLLKEFGKKLITAFKN

P8_MAL Rank (after) [6]: 614
P8_MAL Rank (before) [7]: 2335
Substance: HLLKIVLEKFASHRSS

P3_MAL Rank (after) [1]: 692
P3_MAL Rank (before) [2]: 2803
Substance: HLLKKPRNKRISPFIA

Population [5]: 0.00488%
Substance: HLLKWKEALHQFHSWV

P3_MAL Rank (after) [10]: 503
P3_MAL Rank (before) [11]: 2809
Substance: HPKGSYREALAEHEKR

P3_MAL Rank (after) [8]: 192
P3_MAL Rank (before) [9]: 979
Substance: HQAFTGHLHRYLVQRGV

P8_MAL Rank (after) [10]: 546
P8_MAL Rank (before) [11]: 2337
Substance: HQAFWDRLWAKLKAPI

P3_MAL Rank (after) [6]: 659
P3_MAL Rank (before) [7]: 2860
Substance: HQAFWERLWAKMQAPI

Rank (after) [3]: 472
Rank (before) [4]: 2884
Substance: HQAFWKRPWAKLKPPT

P3_MAL Rank (after) [1]: 755
P3_MAL Rank (before) [2]: 2873
Substance: HQAFWNRLWAKLKPP

P3_MAL Rank (after) [6]: 623
P3_MAL Rank (before) [7]: 2894
Substance: HQALWALMWAKHQTPI

P3_MAL Rank (after) [6]: 626
P3_MAL Rank (before) [7]: 2895
Substance: HQARWNRPWAKLKPPT

P3_MAL Rank (after) [10]: 505
P3_MAL Rank (before) [11]: 2891
Substance: HQASWNRLWEQLKPRT

Rank (after) [3]: 397
Rank (before) [4]: 2901
Substance: HQKGSYGEAPAEHEKR

P3_MAL Rank (after) [1]: 724
P3_MAL Rank (before) [2]: 2849
Substance: HQSFWARTWAALIAPS

P3_MAL Rank (after) [1]: 705
P3_MAL Rank (before) [2]: 2898
Substance: HQTFWDRLCAKLKAPI

Population [5]: 0.00902%
Substance: HQWRNALTAAANLSGW

P8_MAL Rank (after) [8]: 241
P8_MAL Rank (before) [9]: 2434
Substance: IFCISCCLAVRKPSI

Rank (after) [3]: 465
Rank (before) [4]: 3483
Substance: KCFWVTLLYALHRNPR

P3_MAL Rank (after) [8]: 207
P3_MAL Rank (before) [9]: 3542
Substance: KDPDNYKFAIHERDFP

P3_MAL Rank (after) [10]: 489
P3_MAL Rank (before) [11]: 3596
Substance: KELEKYQLAILERDFQ

P3_MAL Rank (after) [6]: 621
P3_MAL Rank (before) [7]: 3593
Substance: KELLHKWKLALTQTPN

P3_MAL Rank (after) [10]: 526
P3_MAL Rank (before) [11]: 3601
Substance: KERLHQWKLALTQAA

P3_MAL Rank (after) [1]: 766
P3_MAL Rank (before) [2]: 3603
Substance: KERLHQWKLALTQAANLS

Population [5]: 0.00376%
Rank (after) [3]: 111
Rank (before) [4]: 178
Substance: KERLHQWKLALTQAANLSGW

P3_MAL Rank (after) [6]: 661
P3_MAL Rank (before) [7]: 3604
Substance: KERLHQWKLALTQAPI

P3_MAL Rank (after) [1]: 736
P3_MAL Rank (before) [2]: 3610
Substance: KERPFGAQRAEKWRA

Rank (after) [3]: 466
Rank (before) [4]: 3611
Substance: KERPFGAQRAEKWRTALT

P3_MAL Rank (after) [8]: 196
P3_MAL Rank (before) [9]: 3547
Substance: KEVDGWRDALTQVASL

P3_MAL Rank (after) [10]: 576
P3_MAL Rank (before) [11]: 3557
Substance: KEVEGWRDALAKVASP

P3_MAL Rank (after) [8]: 191
P3_MAL Rank (before) [9]: 1095
Substance: KEVEGWRDALPHRYEP

Rank (after) [3]: 417
Rank (before) [4]: 3560
Substance: KEVEGWRDALRKIANIF

Rank (after) [3]: 163
Rank (before) [4]: 685
Substance: KEVEGWRDALSSIASRP

P3_MAL Rank (after) [6]: 644
P3_MAL Rank (before) [7]: 3576
Substance: KEVEGWRDALTKAPI

P3_MAL Rank (after) [6]: 599
P3_MAL Rank (before) [7]: 3565
Substance: KEVEGWRDALTQAAN

Rank (after) [3]: 118
Rank (before) [4]: 386
Substance: KEVEGWRQALEKAGKL

P3_MAL Rank (after) [10]: 529
P3_MAL Rank (before) [11]: 3531
Substance: KGLTEIADLKGKKCDR

P3_MAL Rank (after) [1]: 721
P3_MAL Rank (before) [2]: 3468
Substance: KHCWDRLCYMVNDSSR

P3_MAL Rank (after) [1]: 765
P3_MAL Rank (before) [2]: 3469
Substance: KHSNNDQKWAETASRK

P3_MAL Rank (after) [8]: 227
P3_MAL Rank (before) [9]: 3704
Substance: KIILDTAARIWGWRQA

P3_MAL Rank (after) [1]: 762
P3_MAL Rank (before) [2]: 3640
Substance: KIWGWRDALSRNPH

Rank (after) [12]: 404
Rank (before) [13]: 2727
Substance: KLCWEKFKCFLPSLSR

Rank (after) [12]: 436
Rank (before) [13]: 2724
Substance: KLFQQWIELHLHQLHL

Rank (after) [12]: 175
Rank (before) [13]: 1070
Substance: KLFWAICIMRWCRRAF

P8_MAL Rank (after) [8]: 201
P8_MAL Rank (before) [9]: 2708
Substance: KLFWEKFKFFLPTPSR

P8_MAL Rank (after) [8]: 226
P8_MAL Rank (before) [9]: 2709
Substance: KLFWEKFKFFRPSLSC

P8_MAL Rank (after) [6]: 657
P8_MAL Rank (before) [7]: 2687
Substance: KLFWEKLKLFLPSLSR

Rank (after) [12]: 421
Rank (before) [13]: 2752
Substance: KLIQGGCLYRLLKIEQ

P8_MAL Rank (after) [1]: 707
P8_MAL Rank (before) [2]: 2749
Substance: KLIQGWFLYRLMQIEQ

Rank (after) [12]: 429
Rank (before) [13]: 2726
Substance: KLLWEKCTFFLPSLSR

P8_MAL Rank (after) [8]: 211
P8_MAL Rank (before) [9]: 2730
Substance: KLLWVKFKFFLPSLSR

P3_MAL Rank (after) [10]: 494
P3_MAL Rank (before) [11]: 3627
Substance: KLQECRDTLRKIADFF

P3_MAL Rank (after) [6]: 600
P3_MAL Rank (before) [7]: 3631
Substance: KLQEWRDALTAAANLSGW

Rank (after) [3]: 428
Rank (before) [4]: 3626
Substance: KLRAWRDALRNIANIF

P3_MAL Rank (after) [10]: 510
P3_MAL Rank (before) [11]: 3703
Substance: KMKYWKDALYDASNLS

P3_MAL Rank (after) [6]: 673
P3_MAL Rank (before) [7]: 3697
Substance: KMQKWKDALTKVASL

P3_MAL Rank (after) [8]: 250
P3_MAL Rank (before) [9]: 3687
Substance: KMQKWKDALYEAAKLG

P3_MAL Rank (after) [1]: 710
P3_MAL Rank (before) [2]: 3685
Substance: KMQKWKDALYEAAN
